This passage reports IC50 results from patent US20230150970A1, “AMINOPYRIMIDINE DERIVATIVES AND THEIR USE AS ARYL HYDROCARBON RECEPTOR MODULATORS” (DONG-A ST CO., LTD., priority 2020, published 2023).

The assay concerns the target T1, AhR (Homo sapiens, UniProt P35869).
T1 sequence (P35869 11-848): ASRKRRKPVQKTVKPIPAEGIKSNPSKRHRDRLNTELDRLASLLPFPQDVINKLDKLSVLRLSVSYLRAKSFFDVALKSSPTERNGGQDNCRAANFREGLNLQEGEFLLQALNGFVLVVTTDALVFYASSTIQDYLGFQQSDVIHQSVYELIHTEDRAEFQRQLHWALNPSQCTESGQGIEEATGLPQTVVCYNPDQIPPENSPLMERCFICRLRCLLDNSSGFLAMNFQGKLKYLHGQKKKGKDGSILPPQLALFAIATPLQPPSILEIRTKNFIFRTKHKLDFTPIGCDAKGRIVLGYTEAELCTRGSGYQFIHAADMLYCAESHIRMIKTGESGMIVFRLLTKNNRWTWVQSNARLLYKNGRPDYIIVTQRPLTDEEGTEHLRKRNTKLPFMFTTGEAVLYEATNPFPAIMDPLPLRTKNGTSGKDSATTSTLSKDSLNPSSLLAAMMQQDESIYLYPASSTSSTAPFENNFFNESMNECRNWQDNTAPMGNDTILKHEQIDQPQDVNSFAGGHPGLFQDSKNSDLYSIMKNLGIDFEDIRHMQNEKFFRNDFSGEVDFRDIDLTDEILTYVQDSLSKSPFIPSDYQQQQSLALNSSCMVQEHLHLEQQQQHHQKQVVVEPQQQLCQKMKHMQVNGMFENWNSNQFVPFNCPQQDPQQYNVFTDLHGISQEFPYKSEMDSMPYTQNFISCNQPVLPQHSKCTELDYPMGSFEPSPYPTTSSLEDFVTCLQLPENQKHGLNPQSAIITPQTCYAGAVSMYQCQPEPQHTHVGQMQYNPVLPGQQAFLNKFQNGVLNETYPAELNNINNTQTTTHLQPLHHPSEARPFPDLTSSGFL
Kind of assay: In Vitro Assay 1: XRE-luciferase reporter assay, antagonism in human cell line (HepG2). Particulars: Assay 1: AhR-Luc Human Antagonism (IC50, nM), unmarked values: kynurenine 200 μM, 6 hours. A general note: In a reporter assay the amount or activity of a reporter protein is the signal.

`OCC1CCN(c2cc(-c3ccc(Cl)cc3Cl)nc(-c3cccnc3)n2)CC1` [Example 307, (1-(6-(2,4-dichlorophenyl)-2-(pyridin-3-yl)pyrimidin-4-yl)piperidin-4-yl)methanol]: the IC50 – broadly, the concentration that gives 50% inhibition – was 10 to 100 nM.
`OC[C@@H]1CN(c2cc(-c3ccc(C(F)(F)F)cc3)nc(-c3cccnc3)n2)CCN1` [Example 308, (S)-(4-(2-(pyridin-3-yl)-6-(4-(trifluoromethyl)phenyl)pyrimidin-4-yl)piperazin-2-yl)methanol] returned an IC50 of 100 to 1000 nM.
In turn, `OC[C@H]1CN(c2cc(-c3ccc(C(F)(F)F)cc3)nc(-c3cccnc3)n2)CCN1` [Example 309, (R)-(4-(2-(pyridin-3-yl)-6-(4-(trifluoromethyl)phenyl)pyrimidin-4-yl)piperazin-2-yl)methanol] yielded an IC50 of 10 to 100 nM.
The compound `O=C(O)[C@@H]1CCN(c2cc(-c3ccc(C(F)(F)F)cc3)nc(-c3cccnc3)n2)C1` [Example 310, (R)-1-(2-(pyridin-3-yl)-6-(4-(trifluoromethyl)phenyl)pyrimidin-4-yl)pyrrolidine-3-carboxylic acid] gave an IC50 of 100 to 1000 nM.
In turn, `O=C(O)[C@@H]1CCN(c2cc(-c3ccc(Cl)cc3)nc(-c3cccnc3)n2)C1` [Example 311, (R)-1-(6-(4-chlorophenyl)-2-(pyridin-3-yl)pyrimidin-4-yl)pyrrolidine-3-carboxylic acid] came in with an IC50 of 100 to 1000 nM.
Next, `Cn1cc(-c2nc(-c3ccc(Cl)cc3)cc(N3CC[C@@H](C(=O)O)C3)n2)cn1` [Example 313, (R)-1-(6-(4-chlorophenyl)-2-(1-methyl-1H-pyrazol-4-yl)pyrimidin-4-yl)pyrrolidine-3-carboxylic acid]: above 1000 nM; `O[C@H]1CCN(c2cc(-c3ccc(N4CCOCC4)nc3)nc(-c3cccnc3)n2)C1` [Example 315, (S)-1-(6-(6-morpholinopyridin-3-yl)-2-(pyridin-3-yl)pyrimidin-4-yl)pyrrolidin-3-ol]: below 10 nM.
In turn, `Oc1cc(Cl)ccc1-c1cc(N2CC[C@H](O)C2)nc(-c2cccnc2)n1` [Example 316, (S)-1-(6-(4-chloro-2-hydroxyphenyl)-2-(pyridin-3-yl)pyrimidin-4-yl)pyrrolidin-3-ol] registered a 50% inhibitory concentration (IC50) below 10 nM.
Then `Oc1ncccc1-c1cc(N2CC[C@H](O)C2)nc(-c2cccnc2)n1` [Example 317, (S)-3-(6-(3-hydroxypyrrolidin-1-yl)-2-(pyridin-3-yl)pyrimidin-4-yl)pyridin-2-ol], with above 1000 nM.
`OCC1CCN(c2cc(-c3ccc(F)nc3)nc(-c3cccnc3)n2)CC1` [Example 318, (1-(6-(6-fluoropyridin-3-yl)-2-(pyridin-3-yl)pyrimidin-4-yl)piperidin-4-yl)methanol]: the IC50 fell in the range of 10 to 100 nM.
The compound `OC1CN(c2cc(-c3ccc(Cl)cc3)nc(-c3cccnc3)n2)C1` [Example 319, 1-(6-(4-chlorophenyl)-2-(pyridin-3-yl)pyrimidin-4-yl)azetidin-3-ol] displayed an IC50 of 10 to 100 nM.
For the compound `OCC1CN(c2cc(-c3ccc(Cl)cc3)nc(-c3cccnc3)n2)C1` [Example 320, (1-(6-(4-chlorophenyl)-2-(pyridin-3-yl)pyrimidin-4-yl)azetidin-3-yl)methanol], the IC50 was in the range of 10 to 100 nM.
Turning to `Cn1cc(-c2nc(-c3ccc(Cl)cc3)cc(N3CCN(S(C)(=O)=O)CC3)n2)cn1` [Example 321, 4-(4-chlorophenyl)-2-(1-methyl-1H-pyrazol-4-yl)-6-(4-(methylsulfonyl)piperazin-1-yl)pyrimidine], the IC50 was in the range of 100 to 1000 nM.
The compound `Oc1cccc(-c2nc(-c3ccc(Cl)cc3)cc(N3CC[C@H](O)C3)n2)c1` [Example 322, (S)-1-(6-(4-chlorophenyl)-2-(3-hydroxyphenyl)pyrimidin-4-yl)pyrrolidin-3-ol] displayed an IC50 above 1000 nM.
Turning to `O[C@H]1CCN(c2cc(-c3ccc(Cl)cc3)nc(-c3ccncc3)n2)C1` [Example 324, (S)-1-(6-(4-chlorophenyl)-2-(pyridin-4-yl)pyrimidin-4-yl)pyrrolidin-3-ol], the 50% inhibitory concentration (IC50) was above 1000 nM.
Take `CS(=O)(=O)N1CCN(c2cc(-c3ccc(Cl)cc3)nc(-c3cncc(F)c3)n2)CC1` [Example 325, 4-(4-chlorophenyl)-2-(5-fluoropyridin-3-yl)-6-(4-(methylsulfonyl)piperazin-1-yl)pyrimidine]: the IC50 is 10 to 100 nM.
`CS(=O)(=O)C1CCN(c2cc(-c3ccc(Cl)cc3)nc(-c3cccnc3)n2)CC1` [Example 326, 4-(4-chlorophenyl)-6-(4-(methylsulfonyl)piperidin-1-yl)-2-(pyridin-3-yl)pyrimidine]: the IC50 lay within 10 to 100 nM.
Next, `O=S(=O)(C1CC1)N1CCN(c2cc(-c3ccc(Cl)cc3)nc(-c3cccnc3)n2)CC1` [Example 328, 4-(4-chlorophenyl)-6-(4-(cyclopropylsulfonyl)piperazin-1-yl)-2-(pyridin-3-yl)pyrimidine]: 10 to 100 nM; `O[C@H]1CCN(c2cc(-c3ccc(Cl)cc3)nc(-c3ccnnc3)n2)C1` [Example 329, (S)-1-(6-(4-chlorophenyl)-2-(pyridazin-4-yl)pyrimidin-4-yl)pyrrolidin-3-ol]: 100 to 1000 nM.
Turning to `OC1CCCN(c2cc(-c3ccc(Cl)cc3)nc(-c3cccnc3)n2)CC1` (stereo not drawn) [Example 330, 1-(6-(4-chlorophenyl)-2-(pyridin-3-yl)pyrimidin-4-yl)azepan-4-ol], the half-inhibitory concentration (IC50) fell in the range of 10 to 100 nM.
Then `CS(=O)(=O)N1CC2CC1CN2c1cc(-c2ccc(Cl)cc2)nc(-c2cccnc2)n1` (stereo not drawn) [Example 331, 2-(6-(4-chlorophenyl)-2-(pyridin-3-yl)pyrimidin-4-yl)-5-(methylsulfonyl)-2,5-diazabicyclo[2.2.1]heptane], with below 10 nM; and `Cn1nnc(-c2nc(-c3ccc(Cl)cc3)cc(N3CC[C@H](O)C3)n2)n1` [Example 332, (S)-1-(6-(4-chlorophenyl)-2-(2-methyl-2H-tetrazol-5-yl)pyrimidin-4-yl)pyrrolidin-3-ol], with above 1000 nM; and `Cn1nnc(-c2nc(-c3ccc(C(F)(F)F)cc3)cc(N3CC[C@H](O)C3)n2)n1` [Example 333, (S)-1-(2-(2-methyl-2H-tetrazol-5-yl)-6-(4-(trifluoromethyl)phenyl)pyrimidin-4-yl)pyrrolidin-3-ol], with above 1000 nM.
The compound `Cn1nnc(-c2nc(-c3ccc(Cl)cc3)cc(N3CCN(S(C)(=O)=O)CC3)n2)n1` [Example 334, 4-(4-chlorophenyl)-2-(2-methyl-2H-tetrazol-5-yl)-6-(4-(methylsulfonyl)piperazin-1-yl)pyrimidine] registered an IC50 above 1000 nM.
`O=S(=O)(CCF)N1CCN(c2cc(-c3ccc(Cl)cc3)nc(-c3cccnc3)n2)CC1` [Example 335, 4-(4-chlorophenyl)-6-(4-((2-fluoroethyl)sulfonyl)piperazin-1-yl)-2-(pyridin-3-yl)pyrimidine] displayed an IC50 below 10 nM.
With `O[C@H]1CCN(c2cc(-c3ccc(Cl)cc3)nc(-c3cnoc3)n2)C1` [Example 336, (S)-1-(6-(4-chlorophenyl)-2-(isoxazol-4-yl)pyrimidin-4-yl)pyrrolidin-3-ol], the half-inhibitory concentration (IC50) lay within 100 to 1000 nM.
Next, `CS(=O)(=O)C1(CO)CCN(c2cc(-c3ccc(Cl)cc3)nc(-c3cccnc3)n2)CC1` [Example 337, (1-(6-(4-chlorophenyl)-2-(pyridin-3-yl)pyrimidin-4-yl)-4-(methylsulfonyl)piperidin-4-yl)methanol]: below 10 nM; `OC1CCCCN(c2cc(-c3ccc(Cl)cc3)nc(-c3cccnc3)n2)C1` (stereo not drawn) [Example 338, 1-(6-(4-chlorophenyl)-2-(pyridin-3-yl)pyrimidin-4-yl)azepan-3-ol]: 100 to 1000 nM.
The compound `O[C@H]1CCN(c2cc(-c3ccc(C(F)(F)F)cc3)nc(-c3cccnc3)n2)C1` [Example 340, (S)-1-(2-(pyridin-3-yl)-6-(4-(trifluoromethyl)phenyl)pyrimidin-4-yl)pyrrolidin-3-ol] returned an IC50 below 10 nM.
`CS(=O)(=O)N1CCN(c2cc(-c3ccc(C(F)(F)F)cc3)nc(-c3cccnc3)n2)CC1` [Example 341, 4-(4-(methylsulfonyl)piperazin-1-yl)-2-(pyridin-3-yl)-6-(4-(trifluoromethyl)phenyl)pyrimidine]: the IC50 is above 1000 nM.
`O[C@H]1CCN(c2cc(-c3ccc(Cl)cc3)nc(-c3cnc(F)c(F)c3)n2)C1` [Example 342, (S)-1-(6-(4-chlorophenyl)-2-(5,6-difluoropyridin-3-yl)pyrimidin-4-yl)pyrrolidin-3-ol]: the IC50 is above 1000 nM.
Next, `O[C@@H]1CN(c2cc(-c3ccc(C(F)(F)F)cc3)nc(-c3cccnc3)n2)C[C@@H]1O` [Example 343, (3S,4R)-1-(2-(pyridin-3-yl)-6-(4-(trifluoromethyl)phenyl)pyrimidin-4-yl)pyrrolidine-3,4-diol]: above 1000 nM; `O[C@H]1CCN(c2cc(-c3ccc(Cl)cc3)nc(-c3cncnc3)n2)C1` [Example 344, (S)-1-(6-(4-chlorophenyl)-[2,5′-bipyrimidin]-4-yl)pyrrolidin-3-ol]: below 10 nM.
